Columns and labels:
Assay in all cases: Post-emergence test, weed control effect
Format in all cases: in vivo
Conditions in all cases: after 3 weeks
Chenopodiaceae = test system: Chenopodiaceae
Method in brief: (§1)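 Activity is expressed as a level from 0 (no effect) to 10 (plant dead), each step matching a further 10% fresh-weight inhibition, assessed 3 weeks post-treatment. Treatment: spray at 2-3 leaf stage of pot-grown plants, compound in acetone, Tween-80 and water with 80% vegetable oil methyl ester synergist at 1500 g/ha.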

Amaranthus retroflexus = test system: Amaranthus retroflexus
Method in brief: as §1

Rorippa indica = test system: Rorippa indica
Method in brief: as §1

Veronica polita = test system: Veronica polita
Method in brief: as §1

Oc1cc(C(F)(F)F)nnc1-c1c(F)cccc1Br [Compound 47]
10: weed control effect (activity level), Chenopodiaceae (Chenopodiaceae; dose 1000 g/ha) | weed control effect (activity level), Amaranthus retroflexus (Amaranthus retroflexus; dose 1000 g/ha) | weed control effect (activity level), Rorippa indica (Rorippa indica; dose 1000 g/ha) | weed control effect (activity level), Veronica polita (Veronica polita; dose 1000 g/ha)

Oc1cc(C(F)(F)F)nnc1-c1cccnc1I [Compound 969]
10: weed control effect (activity level), Chenopodiaceae (Chenopodiaceae; Dose 3000 g/ha) | weed control effect (activity level), Amaranthus retroflexus (Amaranthus retroflexus; Dose 3000 g/ha) | weed control effect (activity level), Rorippa indica (Rorippa indica; Dose 3000 g/ha) | weed control effect (activity level), Veronica polita (Veronica polita; Dose 3000 g/ha)

Cc1ncoc1C(=O)Oc1cc(C(F)(F)F)nnc1-c1ccc(F)c(F)c1 [Compound 1-108]
10: weed control effect, Chenopodiaceae (activity level) (Chenopodiaceae; Dose 3000 g/ha) | weed control effect, Amaranthus retroflexus (activity level) (Amaranthus retroflexus; Dose 3000 g/ha) | weed control effect, Rorippa indica (activity level) (Rorippa indica; Dose 3000 g/ha) | weed control effect, Veronica polita (activity level) (Veronica polita; Dose 3000 g/ha)

Oc1cc(C(F)(F)F)nnc1-c1cccc2ccccc12 [Compound 380]
10: weed control effect (activity level), Chenopodiaceae (Chenopodiaceae; dose 2000 g/ha) | weed control effect (activity level), Amaranthus retroflexus (Amaranthus retroflexus; dose 2000 g/ha) | weed control effect (activity level), Rorippa indica (Rorippa indica; dose 2000 g/ha) | weed control effect (activity level), Veronica polita (Veronica polita; dose 2000 g/ha)

Oc1cc(C(F)(F)F)nnc1-c1cncc(C2CC2)c1 [Compound 214]
10: weed control effect (activity level), Chenopodiaceae (Chenopodiaceae; dose 2000 g/ha) | weed control effect (activity level), Amaranthus retroflexus (Amaranthus retroflexus; dose 2000 g/ha) | weed control effect (activity level), Rorippa indica (Rorippa indica; dose 2000 g/ha) | weed control effect (activity level), Veronica polita (Veronica polita; dose 2000 g/ha)

Cc1ccc(S(=O)(=O)Oc2cc(C(F)(F)F)nnc2-c2ccnc(F)c2)cc1 [Compound 1-126]
10: weed control effect, Chenopodiaceae (activity level) (Chenopodiaceae; Dose 3000 g/ha) | weed control effect, Amaranthus retroflexus (activity level) (Amaranthus retroflexus; Dose 3000 g/ha) | weed control effect, Rorippa indica (activity level) (Rorippa indica; Dose 3000 g/ha) | weed control effect, Veronica polita (activity level) (Veronica polita; Dose 3000 g/ha)

CC(=O)CC(=O)Oc1cc(C(F)(F)F)nnc1-c1ccc(F)cc1 [Compound 1-76]
10: weed control effect, Chenopodiaceae (activity level) (Chenopodiaceae; Dose 3000 g/ha) | weed control effect, Amaranthus retroflexus (activity level) (Amaranthus retroflexus; Dose 3000 g/ha) | weed control effect, Rorippa indica (activity level) (Rorippa indica; Dose 3000 g/ha) | weed control effect, Veronica polita (activity level) (Veronica polita; Dose 3000 g/ha)

O=C(Oc1cc(C(F)(F)F)nnc1-c1ccc(F)c(F)c1)c1ccccc1 [Compound 1-79]
10: weed control effect, Chenopodiaceae (activity level) (Chenopodiaceae; Dose 3000 g/ha) | weed control effect, Amaranthus retroflexus (activity level) (Amaranthus retroflexus; Dose 3000 g/ha) | weed control effect, Rorippa indica (activity level) (Rorippa indica; Dose 3000 g/ha) | weed control effect, Veronica polita (activity level) (Veronica polita; Dose 3000 g/ha)

COc1ccc(Cl)c(-c2nnc(C(F)(F)F)cc2O)c1 [Compound 70]
10: weed control effect (activity level), Chenopodiaceae (Chenopodiaceae; dose 1000 g/ha) | weed control effect (activity level), Amaranthus retroflexus (Amaranthus retroflexus; dose 1000 g/ha) | weed control effect (activity level), Rorippa indica (Rorippa indica; dose 1000 g/ha) | weed control effect (activity level), Veronica polita (Veronica polita; dose 1000 g/ha)

O=C(Oc1cc(C(F)(F)F)nnc1-c1ccc(F)c(F)c1)N1CCOCC1 [Compound 1-66]
10: weed control effect, Chenopodiaceae (activity level) (Chenopodiaceae; Dose 3000 g/ha) | weed control effect, Amaranthus retroflexus (activity level) (Amaranthus retroflexus; Dose 3000 g/ha) | weed control effect, Rorippa indica (activity level) (Rorippa indica; Dose 3000 g/ha) | weed control effect, Veronica polita (activity level) (Veronica polita; Dose 3000 g/ha)

CN(C)c1ccc(C(=O)Oc2cc(C(F)(F)F)nnc2-c2cccc(F)c2)cc1 [Compound 1-90]
10: weed control effect, Chenopodiaceae (activity level) (Chenopodiaceae; Dose 3000 g/ha) | weed control effect, Amaranthus retroflexus (activity level) (Amaranthus retroflexus; Dose 3000 g/ha) | weed control effect, Rorippa indica (activity level) (Rorippa indica; Dose 3000 g/ha) | weed control effect, Veronica polita (activity level) (Veronica polita; Dose 3000 g/ha)

CCn1nccc1-c1nnc(C(F)(F)F)cc1O [Compound 826]
10: weed control effect (activity level), Chenopodiaceae (Chenopodiaceae; Dose 3000 g/ha) | weed control effect (activity level), Amaranthus retroflexus (Amaranthus retroflexus; Dose 3000 g/ha) | weed control effect (activity level), Rorippa indica (Rorippa indica; Dose 3000 g/ha) | weed control effect (activity level), Veronica polita (Veronica polita; Dose 3000 g/ha)

CS(=O)(=O)c1ccc(-c2nnc(C(F)(F)F)cc2O)cc1 [Compound 114]
10: weed control effect (activity level), Chenopodiaceae (Chenopodiaceae; dose 1000 g/ha) | weed control effect (activity level), Amaranthus retroflexus (Amaranthus retroflexus; dose 1000 g/ha) | weed control effect (activity level), Rorippa indica (Rorippa indica; dose 1000 g/ha) | weed control effect (activity level), Veronica polita (Veronica polita; dose 1000 g/ha)

Oc1cc(C(F)(F)F)nnc1-c1cncc(F)c1Cl [Compound 1002]
10: weed control effect (activity level), Chenopodiaceae (Chenopodiaceae; Dose 3000 g/ha) | weed control effect (activity level), Amaranthus retroflexus (Amaranthus retroflexus; Dose 3000 g/ha) | weed control effect (activity level), Rorippa indica (Rorippa indica; Dose 3000 g/ha) | weed control effect (activity level), Veronica polita (Veronica polita; Dose 3000 g/ha)

Oc1cc(C(F)(F)F)nnc1-c1ccnn1CC(F)(F)F [Compound 831]
10: weed control effect (activity level), Chenopodiaceae (Chenopodiaceae; Dose 3000 g/ha) | weed control effect (activity level), Amaranthus retroflexus (Amaranthus retroflexus; Dose 3000 g/ha) | weed control effect (activity level), Rorippa indica (Rorippa indica; Dose 3000 g/ha) | weed control effect (activity level), Veronica polita (Veronica polita; Dose 3000 g/ha)

O=S(=O)(Oc1cc(C(F)(F)F)nnc1-c1ccc(F)c(Cl)c1)c1ccc(Oc2ccc(F)cc2)cc1 [Compound 1-142]
10: weed control effect, Chenopodiaceae (activity level) (Chenopodiaceae; Dose 3000 g/ha) | weed control effect, Amaranthus retroflexus (activity level) (Amaranthus retroflexus; Dose 3000 g/ha) | weed control effect, Rorippa indica (activity level) (Rorippa indica; Dose 3000 g/ha) | weed control effect, Veronica polita (activity level) (Veronica polita; Dose 3000 g/ha)

CCCCOC(=O)Oc1cc(C(F)(F)F)nnc1-c1ccc(F)cc1 [Compound 1-29]
10: weed control effect, Chenopodiaceae (activity level) (Chenopodiaceae; Dose 3000 g/ha) | weed control effect, Amaranthus retroflexus (activity level) (Amaranthus retroflexus; Dose 3000 g/ha) | weed control effect, Rorippa indica (activity level) (Rorippa indica; Dose 3000 g/ha) | weed control effect, Veronica polita (activity level) (Veronica polita; Dose 3000 g/ha)

Cc1ccc(S(=O)(=O)Oc2cc(C(F)(F)F)nnc2-c2ccc(F)c(F)c2)cc1 [Compound 1-127]
10: weed control effect, Chenopodiaceae (activity level) (Chenopodiaceae; Dose 3000 g/ha) | weed control effect, Amaranthus retroflexus (activity level) (Amaranthus retroflexus; Dose 3000 g/ha) | weed control effect, Rorippa indica (activity level) (Rorippa indica; Dose 3000 g/ha) | weed control effect, Veronica polita (activity level) (Veronica polita; Dose 3000 g/ha)
